From PMC10874388, “Cyclic peptides discriminate BCL-2 and its clinical mutants from BCL-XL by engaging a single-residue discrepancy” (Nature Communications, 2024)
Values joined by “and” are separate entries in the source; they are usually repeats but may differ in a detail not shown here. Equal entries are not always repeated.

System: A549 cells overexpressing BCL-2 WT
Test: Cell viability assay, A549 stably overexpressing BCL-2 WT
Type: cell-based
Details: A549 BCL2-WT, single wells
Description: Cell viability was measured using CellTiter-Glo® 2.0 Reagent (Promega, G9242). […] After different inhibitors were added into serum-free medium and cultured for 4 h (RS4:11 for 6 h), FBS were supplemented to 10% and then incubated totally for 24 h or 48 h. Finally, the IC50 values were calculated based on measurements using a microplate reader (Thermo, Varioskan LUX). Statistical analysis was performed using software GraphPad Prism 7.0.
Lentivirus packaging vectors pMDLg/pRRE, pRSV-Rev, and pVSV-G were obtained from Prof. Han Jiahuai’s lab (Xiamen University). Lentiviruses were produced using 3rd-generation lentivirus packaging plasmids transiently transfected into HEK293T cells with the constructs of interest using 0.25 M CaCl2. Media was changed after 16 h, and supernatants containing infectious virus particles were harvested 24 h later. A second viral harvest was made following a further 24 h incubation with fresh media. Virus containing supernatant was filtered through a […], and stored at 4 °C or −80 °C until being used. Typically, A549 cells were seeded into 10 cm cell culture dishes at 4 ~ 8 × 10^5 cells/cm^2. An equivalent volume of virus containing culture medium was added along with polybrene (Sigma) to a final concentration of 10 µg/mL. Cells were incubated at 37 °C for 20 h, before they were washed and resuspended in fresh culture media. The expression level of BCL-2 was measured by qPCR and western blot methods.

Compound: O=C(c1cc(-c2cc3c(cc2C(=O)N2Cc4ccccc4C[C@H]2CN2CCOCC2)OCO3)n2c1CCCC2)N(c1ccccc1)c1ccc(O)cc1 [S55746]
- BCL2-WT inhibition rate (3.125 uM): 2.61% and 4.22% and -4.33% and 4% and -2.32%
- raw luminescence reading (3.125 uM): 861200 and 847000 and 922600 and 850300 and 904800 and 882000
- BCL2-WT inhibition rate (6.25 uM): 12% and 11% and 10% and 8% and 15%
- raw luminescence reading (6.25 uM): 774200 and 789000 and 799200 and 813400 and 753900 and 827800
- BCL2-WT inhibition rate (12.5 uM): 25% and 23% and 22% and 26%
- raw luminescence reading (12.5 uM): 665800 and 680900 and 679300 and 687300 and 653500 and 700500
- BCL2-WT inhibition rate (25 uM): 32% and 31%
- raw luminescence reading (25 uM): 602600 and 612300 and 599000 and 609600 and 600600 and 625900
- BCL2-WT inhibition rate (50 uM): 45%
- raw luminescence reading (50 uM): 489600 and 486500 and 483800 and 490200 and 490400 and 500400
- BCL2-WT inhibition rate (100 uM): 51% and 50%
- raw luminescence reading (100 uM): 433600 and 432600 and 430000 and 431900 and 437900 and 439800
- BCL2-WT inhibition rate (200 uM): 51% and 53% and 52% and 50%
- raw luminescence reading (200 uM): 434700 and 435900 and 419200 and 420100 and 446100 and 441200
